From the NIST ThermoML archive (doi:10.1016/j.jct.2016.03.021)
Numbers after ± are expanded uncertainties.

Assay: wn = mass fraction of the nth substance listed
Details: Liquid; for mass density: Vibrating tube method

CN(CCO)CCO [N-methyldiethanolamine] + O
viscosity [mPa·s]
Details	w1 = 0.1	w1 = 0.2	w1 = 0.2002	w1 = 0.3	w1 = 0.4
293.15 K, 93 kPa, Concentric cylinders viscometry	1.463 ± 0.03	2.293 ± 0.047	–	3.942 ± 0.08	–
293.15 K, 100 kPa, Falling or rolling sphere viscometry	1.476 ± 0.046	2.35 ± 0.073	2.35 ± 0.073	3.999 ± 0.12	–
293.15 K, 5000 kPa, Falling or rolling sphere viscometry	1.475 ± 0.046	–	2.353 ± 0.073	4.018 ± 0.12	–
293.15 K, 10000 kPa, Falling or rolling sphere viscometry	1.475 ± 0.046	–	2.357 ± 0.073	4.038 ± 0.12	–
293.15 K, 20000 kPa, Falling or rolling sphere viscometry	1.471 ± 0.045	–	2.364 ± 0.073	4.077 ± 0.13	–
293.15 K, 30000 kPa, Falling or rolling sphere viscometry	1.472 ± 0.045	–	2.372 ± 0.073	4.114 ± 0.13	–
293.15 K, 40000 kPa, Falling or rolling sphere viscometry	1.47 ± 0.045	–	2.38 ± 0.073	4.153 ± 0.13	–
293.15 K, 60000 kPa, Falling or rolling sphere viscometry	1.474 ± 0.046	–	2.399 ± 0.074	4.231 ± 0.13	–
293.15 K, 80000 kPa, Falling or rolling sphere viscometry	1.477 ± 0.046	–	2.419 ± 0.075	4.311 ± 0.13	–
293.15 K, 100000 kPa, Falling or rolling sphere viscometry	1.485 ± 0.046	–	2.437 ± 0.075	4.39 ± 0.14	–
293.15 K, 120000 kPa, Falling or rolling sphere viscometry	1.492 ± 0.046	–	2.464 ± 0.076	4.478 ± 0.14	–
313.15 K, 93 kPa, Concentric cylinders viscometry	0.9079 ± 0.019	1.342 ± 0.028	–	2.094 ± 0.043	3.145 ± 0.064
313.15 K, 100 kPa, Falling or rolling sphere viscometry	0.912 ± 0.028	1.345 ± 0.042	1.345 ± 0.042	2.095 ± 0.065	3.238 ± 0.1
313.15 K, 5000 kPa, Falling or rolling sphere viscometry	0.914 ± 0.028	–	1.347 ± 0.042	2.106 ± 0.065	3.27 ± 0.1
313.15 K, 10000 kPa, Falling or rolling sphere viscometry	0.915 ± 0.028	–	1.349 ± 0.042	2.118 ± 0.065	3.302 ± 0.1

mass density [kg/m3]
Details	w1 = 0.1	w1 = 0.2002	w1 = 0.3	w1 = 0.4
293.15 K, 100 kPa	1007 ± 0.7	1016.5 ± 0.7	1026.7 ± 0.7	1036.6 ± 0.7
293.15 K, 500 kPa	1007.2 ± 0.7	1016.6 ± 0.7	1026.9 ± 0.7	1036.8 ± 0.7
293.15 K, 1000 kPa	1007.4 ± 0.7	1016.8 ± 0.7	1027.1 ± 0.7	1036.9 ± 0.7
293.15 K, 2000 kPa	1007.8 ± 0.7	1017.2 ± 0.7	1027.4 ± 0.7	1037.3 ± 0.7
293.15 K, 5000 kPa	1009 ± 0.7	1018.4 ± 0.7	1028.6 ± 0.7	1038.3 ± 0.7
293.15 K, 10000 kPa	1011.1 ± 0.7	1020.3 ± 0.7	1030.4 ± 0.7	1040.1 ± 0.7
293.15 K, 15000 kPa	1013.2 ± 0.7	1022.2 ± 0.7	1032.2 ± 0.7	1041.9 ± 0.7
293.15 K, 20000 kPa	1015.3 ± 0.7	1024.2 ± 0.7	1034.1 ± 0.7	1043.6 ± 0.7
293.15 K, 30000 kPa	1019.4 ± 0.7	1028 ± 0.7	1037.7 ± 0.7	1047.1 ± 0.7
293.15 K, 40000 kPa	1023.4 ± 0.7	1031.8 ± 0.7	1041.2 ± 0.7	1050.4 ± 0.7
293.15 K, 50000 kPa	1027.3 ± 0.7	1035.4 ± 0.7	1044.6 ± 0.7	1053.8 ± 0.7
293.15 K, 60000 kPa	1031.1 ± 0.7	1039 ± 0.7	1048 ± 0.7	1057.1 ± 0.7
293.15 K, 70000 kPa	1035 ± 0.7	1042.6 ± 0.7	1051.4 ± 0.7	1060.3 ± 0.7
293.15 K, 80000 kPa	1038.5 ± 0.7	1045.9 ± 0.7	1054.6 ± 0.7	1063.3 ± 0.7
293.15 K, 90000 kPa	1042.2 ± 0.7	1049.4 ± 0.7	1057.9 ± 0.7	1066.4 ± 0.8
293.15 K, 100000 kPa	1045.7 ± 0.7	1052.8 ± 0.7	1061.1 ± 0.8	1069.5 ± 0.8
293.15 K, 110000 kPa	1049.2 ± 0.7	1056 ± 0.8	1064.1 ± 0.8	1072.4 ± 0.8
293.15 K, 120000 kPa	1052.7 ± 0.8	1059.3 ± 0.8	1067.2 ± 0.8	1075.4 ± 0.8
293.15 K, 130000 kPa	1056.1 ± 0.8	1062.6 ± 0.8	1070.3 ± 0.8	1078.4 ± 0.8
293.15 K, 140000 kPa	1059.5 ± 0.8	1065.6 ± 0.8	1073.2 ± 0.8	1081.1 ± 0.8
313.15 K, 100 kPa	1000.2 ± 0.7	1008.5 ± 0.7	1017.2 ± 0.7	1025.5 ± 0.7
313.15 K, 500 kPa	1000.4 ± 0.7	1008.6 ± 0.7	1017.4 ± 0.7	1025.6 ± 0.7
313.15 K, 1000 kPa	1000.6 ± 0.7	1008.8 ± 0.7	1017.5 ± 0.7	1025.8 ± 0.7
313.15 K, 2000 kPa	1001 ± 0.7	1009.2 ± 0.7	1017.9 ± 0.7	1026.2 ± 0.7
313.15 K, 5000 kPa	1002.2 ± 0.7	1010.4 ± 0.7	1019.1 ± 0.7	1027.3 ± 0.7
313.15 K, 10000 kPa	1004.3 ± 0.7	1012.3 ± 0.7	1020.9 ± 0.7	1029.2 ± 0.7
313.15 K, 15000 kPa	1006.3 ± 0.7	1014.2 ± 0.7	1022.8 ± 0.7	1031 ± 0.7
